Measured values from PMC3511314, “Functional Characterization of Two M42 Aminopeptidases Erroneously Annotated as Cellulases” (PLoS ONE, 2012).

Tests used:
Format in all cases: biochemical
CelM [1] = biological target: T1, CelM (Acetivibrio thermocellus, UniProt P55742); experiment: specific activity of pNA hydrolysis at […] substrate
T1 construct: recombinant CelM bearing a C-terminal hexahistidine tag
T1 sequence (P55742 1-330): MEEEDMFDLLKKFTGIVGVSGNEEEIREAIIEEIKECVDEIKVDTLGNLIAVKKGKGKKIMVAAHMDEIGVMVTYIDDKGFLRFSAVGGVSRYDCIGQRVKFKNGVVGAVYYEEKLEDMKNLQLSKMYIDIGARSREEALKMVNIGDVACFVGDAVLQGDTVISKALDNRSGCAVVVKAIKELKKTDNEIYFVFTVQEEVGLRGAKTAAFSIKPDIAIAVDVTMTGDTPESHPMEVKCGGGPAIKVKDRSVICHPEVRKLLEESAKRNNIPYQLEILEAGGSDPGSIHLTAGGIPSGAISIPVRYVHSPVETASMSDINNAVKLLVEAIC

TmPep1050 [2] = biological target: T2, TmPep1050 (Thermotoga maritima, UniProt Q9X0E0); experiment: specific activity of pNA hydrolysis at […] substrate
T2 construct: gene TM_1050; recombinant TmPep1050 (TM1050 ORF)
T2 sequence (Q9X0E0 1-331): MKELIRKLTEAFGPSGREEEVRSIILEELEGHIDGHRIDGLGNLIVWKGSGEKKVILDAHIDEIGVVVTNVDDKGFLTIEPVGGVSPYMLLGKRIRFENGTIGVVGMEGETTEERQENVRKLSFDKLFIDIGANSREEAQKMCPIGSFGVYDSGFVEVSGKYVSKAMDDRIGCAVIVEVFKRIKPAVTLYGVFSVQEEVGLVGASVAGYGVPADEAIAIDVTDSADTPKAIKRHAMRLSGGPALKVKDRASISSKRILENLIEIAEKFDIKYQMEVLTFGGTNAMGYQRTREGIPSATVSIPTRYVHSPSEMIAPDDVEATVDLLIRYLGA

TmPep1050 [3] = biological target: T2, TmPep1050; experiment: inhibition of leucine aminopeptidase activity of purified enzyme, apparent Ki
CelM [4] = biological target: T1, CelM; experiment: as above

SMILES	CelM sp act (CelM [1])	TmPep1050 sp act (TmPep1050 [2])	Ki (TmPep1050 [3])	Ki (CelM [4])
CC(C)[C@H](N)C(=O)Nc1ccc([N+](=O)[O-])cc1 [L-Val-pNA]	8.4±0.016 µmol min^−1 µmol^−1	14.3±1.8 µmol min^−1 µmol^−1	–	–
CC(C)C[C@H](NC(=O)[C@@H](O)[C@H](N)Cc1ccccc1)C(=O)O [bestatin]	–	–	432 ± 72 nM	292 ± 66 nM
